Measurements published in US20070232601A1, “Vla-4 Inhibitor” (priority 2004, published 2007).

Key:
[1] = molecular target: T1, hα4 and β1 integrins (VLA-4) (Homo sapiens, UniProt P05556+P13612); experiment: In vitro evaluation: inhibition of binding of CHO cells expressing hα4 and β1 integrins to Eu3+-hVCAM-1 D1D7-IgG; conditions: ligand Eu3+-hVCAM-1 D1D7-IgG 2 nM, Ki calculated from IC50
T1 construct: expressed in transfected cells; host or cells: CHO cells
Outline: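 CHO cells stably expressing hα4β1 were cultured 2 days, then incubated 1 h at room temperature with Eu3+-hVCAM-1 D1D7-IgG (added as 2 nM solution) and compound in HEPES pH 7.5 with Ca2+, Mg2+ and 4 mM Mn2+, ± 6% human serum albumin. Bound europium was read by time-resolved fluorescence; IC50 was converted to Ki using Scatchard-derived Kd.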

[2] = Dispersibility test in Japanese Pharmacopoeia First and Second Solution; assay type: physicochemical; conditions: for Dispersibility in Japanese Pharmacopoeia First Solution: JP1, pH 1.2; for Dispersibility in Japanese Pharmacopoeia Second Solution: JP2, pH 6.8
Method: Dispersibility of a test substance in Japanese Pharmacopoeia First Solution (JP1, pH 1.2) and Japanese Pharmacopoeia Second Solution (JP2, pH 6.8) was evaluated.

T1 sequence (P13612 34-1032): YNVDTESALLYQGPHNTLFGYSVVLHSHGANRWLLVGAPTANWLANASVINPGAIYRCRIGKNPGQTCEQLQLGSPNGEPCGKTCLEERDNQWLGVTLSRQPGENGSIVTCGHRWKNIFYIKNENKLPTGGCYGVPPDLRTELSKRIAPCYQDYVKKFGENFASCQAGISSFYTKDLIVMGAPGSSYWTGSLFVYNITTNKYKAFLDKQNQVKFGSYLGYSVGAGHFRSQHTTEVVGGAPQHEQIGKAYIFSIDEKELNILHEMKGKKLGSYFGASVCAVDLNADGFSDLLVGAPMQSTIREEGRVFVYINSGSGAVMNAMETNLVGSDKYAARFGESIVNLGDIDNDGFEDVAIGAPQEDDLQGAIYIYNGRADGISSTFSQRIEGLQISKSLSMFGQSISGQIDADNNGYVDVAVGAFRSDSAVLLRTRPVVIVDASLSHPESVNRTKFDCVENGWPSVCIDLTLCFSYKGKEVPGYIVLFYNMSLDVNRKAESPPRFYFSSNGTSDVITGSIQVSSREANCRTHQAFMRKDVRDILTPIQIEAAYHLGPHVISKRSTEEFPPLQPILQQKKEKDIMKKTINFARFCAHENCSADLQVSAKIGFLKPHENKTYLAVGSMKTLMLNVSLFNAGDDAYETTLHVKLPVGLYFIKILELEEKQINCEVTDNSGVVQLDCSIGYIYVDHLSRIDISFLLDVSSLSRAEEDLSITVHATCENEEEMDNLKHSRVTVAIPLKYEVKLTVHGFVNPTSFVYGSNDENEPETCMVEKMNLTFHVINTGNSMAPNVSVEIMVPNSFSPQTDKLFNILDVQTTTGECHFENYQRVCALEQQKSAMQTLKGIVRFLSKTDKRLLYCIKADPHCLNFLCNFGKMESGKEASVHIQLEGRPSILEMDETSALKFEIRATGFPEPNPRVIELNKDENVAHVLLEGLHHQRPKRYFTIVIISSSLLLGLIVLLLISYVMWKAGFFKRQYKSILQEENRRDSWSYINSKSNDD
T1 sequence (P05556 21-798): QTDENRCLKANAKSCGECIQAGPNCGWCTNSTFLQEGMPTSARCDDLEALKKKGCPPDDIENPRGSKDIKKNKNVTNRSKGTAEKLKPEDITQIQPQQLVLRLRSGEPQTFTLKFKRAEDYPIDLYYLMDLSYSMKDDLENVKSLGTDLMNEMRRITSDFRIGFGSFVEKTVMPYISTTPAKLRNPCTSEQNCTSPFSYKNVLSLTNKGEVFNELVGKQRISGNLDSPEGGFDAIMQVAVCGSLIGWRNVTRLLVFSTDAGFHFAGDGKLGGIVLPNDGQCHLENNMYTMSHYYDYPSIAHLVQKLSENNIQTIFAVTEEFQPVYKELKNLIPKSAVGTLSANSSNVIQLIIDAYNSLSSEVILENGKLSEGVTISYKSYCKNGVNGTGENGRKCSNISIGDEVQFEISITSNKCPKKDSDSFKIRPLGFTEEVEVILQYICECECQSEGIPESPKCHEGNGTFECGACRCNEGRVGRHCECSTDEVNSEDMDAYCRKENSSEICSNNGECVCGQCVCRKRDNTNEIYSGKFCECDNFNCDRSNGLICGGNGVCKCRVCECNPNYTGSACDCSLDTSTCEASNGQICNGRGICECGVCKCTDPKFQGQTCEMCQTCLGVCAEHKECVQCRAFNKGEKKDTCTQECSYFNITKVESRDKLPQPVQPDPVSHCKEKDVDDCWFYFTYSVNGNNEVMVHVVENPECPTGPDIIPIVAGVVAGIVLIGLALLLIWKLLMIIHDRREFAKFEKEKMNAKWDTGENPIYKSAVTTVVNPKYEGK

Row | Compound | Ki [1] | Dispersibility in Japanese Pharmacopoeia First Solution [2] | Dispersibility in Japanese Pharmacopoeia Second Solution [2]
1 | CCOC1CN([C@H]2C[C@@H](c3ncc(CCC(=O)O)s3)N(C(=O)Cc3cc(Cl)c(NC(=O)c4csc5ccccc45)cc3F)C2)C1 [Example 71, 3-[2-[1-[4-(3-Benzo[b]thiophenylcarbonylamino)-5-chloro-2-fluorophenylacetyl]-(4S)-1-(3-ethoxy)azetidinyl-(2S)-pyrrolidinyl]-5-thiazolyl]propionic acid] | 0.5 nM | 940 µg/mL | 940 µg/mL
2 | CCOC1CN([C@H]2C[C@@H](c3ncc(CCC(=O)O)s3)N(C(=O)Cc3cc(Cl)c(NC(=O)c4csc5ccccc45)cc3Cl)C2)C1 [Example 72, 3-[2-[1-[4-(3-Benzo[b]thiophenylcarbonylamino)-2,5-dichlorophenylacetyl]-(4S)-1-(3-ethoxy)azetidinyl-(2S)-pyrrolidinyl]-5-thiazolyl]propionic acid] | 0.68 nM | 960 µg/mL | 960 µg/mL
3 | Cn1cc(C(=O)Nc2cc(F)c(CC(=O)N3C[C@@H](N4CCC(F)(F)CC4)C[C@H]3c3ncc(CCC(=O)O)s3)cc2Cl)c2ccccc21 [Example 73, 3-[2-[1-[5-Chloro-2-fluoro-4-(1-methyl-3-indolylcarbonylamino)phenylacetyl]-(4S)-[1-(4,4-difluoro)piperidinyl]-(2S)-pyrrolidinyl]-5-thiazolyl]propionic acid] | 1.1 nM | 230 µg/mL | 290 µg/mL
4 | Cn1cc(C(=O)Nc2cc(Cl)c(CC(=O)N3C[C@@H](N4CCC(F)(F)CC4)C[C@H]3c3ncc(CCC(=O)O)s3)cc2Cl)c2ccccc21 [Example 74, 3-[2-[1-[2,5-Dichloro-4-(1-methyl-3-indolylcarbonylamino)phenylacetyl]-(4S)-[1-(4,4-difluoro)piperidinyl]-(2S)-pyrrolidinyl]-5-thiazolyl]propionic acid] | 1.2 nM | 130 µg/mL | 150 µg/mL
5 | O=C(O)CCc1cnc([C@@H]2C[C@H](N3CCC(F)(F)CC3)CN2C(=O)Cc2cc(Cl)c(NC(=O)c3csc4ccccc34)cc2F)s1 [Example 75, 3-[2-[1-[4-(3-Benzo[b]thiophenylcarbonylamino)-5-chloro-2-fluorophenylacetyl]-(4S)-[1-(4,4-difluoro)piperidinyl]-(2S)-pyrrolidinyl]-5-thiazolyl]propionic acid] | 0.47 nM | 220 µg/mL | 160 µg/mL
6 | O=C(O)CCc1cnc([C@@H]2C[C@H](N3CCC(F)(F)CC3)CN2C(=O)Cc2cc(Cl)c(NC(=O)c3csc4ccccc34)cc2Cl)s1 [Example 76] | 0.79 nM | 110 µg/mL | 83 µg/mL
7 | O=C(O)CCc1cnc([C@@H]2C[C@H](N3CCC(F)(F)CC3)CN2C(=O)Cc2cc(Cl)c(NC(=O)c3coc4ccccc34)cc2F)s1 [Example 77, 3-[2-[1-[4-(3-Benzo[b]furanylcarbonylamino)-5-chloro-2-fluorophenylacetyl]-(4S)-[1-(4,4-difluoro)piperidinyl]-(2S)-pyrrolidinyl]-5-thiazolyl]propionic acid] | 0.72 nM | 430 µg/mL | 380 µg/mL
